In patent publication US10047105B2, “Gyrase inhibitors” (Merck Sharp & Dohme Corp., priority 2009, dated 2018):
Values after ≈ are worked out from the molar mass of the structure shown.

Assays:
Type in all cases: cell-based
E. coli 8 ATCC 25922 = experiment: MIC, E. coli 8 (wt); details: E. coli 8 (EC8)
S. aureus ATCC 13709 = experiment: MIC, antibacterial potency, S. aureus; details: S. aureus (SA); in µg/mL
S. pneumoniae ATCC 51916 = experiment: MIC, S. pneumoniae; details: S. pneumoniae (Spn52); in µg/mL

Row | SMILES | MIC EC8 (E. coli 8 ATCC 25922) | MIC, SA (S. aureus ATCC 13709) | MIC Spn52 (S. pneumoniae ATCC 51916)
1 | CCOC(=O)C(=O)NCC1CCN(c2nc(Sc3cnc4cccnc4c3)nc3[nH]c(CC)c(Cl)c23)C1 (stereo not drawn) [701,043] | > 64 mg/L | 1 | >64
2 | CCc1[nH]c2nc(Sc3cnc4cccnc4c3)nc(N3CCC(CNC(C)=O)C3)c2c1Cl (stereo not drawn) [701,044] | > 64 mg/L | <=0.5 | 1
3 | CCc1[nH]c2nc(Sc3cnc4cccnc4c3)nc(N3CCC(CNS(=O)(=O)c4ccccc4)C3)c2c1Cl (stereo not drawn) [701,045] | > 64 mg/L | <=0.5 | 1
4 | CCc1[nH]c2nc(Sc3cnc4cccnc4c3)nc(N3CCC(CNS(=O)(=O)c4cnoc4C)C3)c2c1Cl (stereo not drawn) [701,046] | > 64 mg/L | 2 | 4
5 | CCc1[nH]c2nc(Sc3cnc4cccnc4c3)nc(N3CCC(CNC(=O)c4nccs4)C3)c2c1Cl (stereo not drawn) [701,047] | > 64 mg/L | <=0.5 | <=0.5
6 | CCc1[nH]c2nc(Sc3ccc4cc(C(=O)N5CC(O)C5)c(C)[n+]([O-])c4c3)nc(N3CC[C@@H](N)C3)c2c1Cl [701,048] | > 64 mg/L | 16 | >64
7 | CCc1[nH]c2nc(Sc3ccc4cncnc4c3)nc(N3CC[C@@H](N)C3)c2c1Cl [701,049] | 8 mg/L (≈ 18.8 µM) | <=0.5 | <=0.5
8 | CCc1[nH]c2nc(Sc3ccc4cncnc4c3)nc(N3CC(N)C3)c2c1Cl [701,050] | 32 mg/L (≈ 77.7 µM) | <=0.5 | <=0.5
9 | CCc1[nH]c2nc(Sc3ccc4c[n+]([O-])cnc4c3)nc(N3CC[C@@H](N)C3)c2c1Cl [701,051] | > 32 mg/L | 2 | 4
10 | CCc1[nH]c2nc(Oc3cncnc3)nc(N3CC4C(C3)C4NC(C)=O)c2c1Br (stereo not drawn) [701,052] | > 16 mg/L | 4 | 8
11 | CCc1[nH]c2nc(Oc3ccc4cccnc4c3)nc(Oc3ccc4cccnc4c3)c2c1Br [701,054] | > 64 mg/L | <=0.5 | 1
12 | CCc1[nH]c2nc(Oc3ccc4cccnc4c3)nc(N3CC4C(N)C4C3)c2c1Cl (stereo not drawn) [701,055] | > 64 mg/L | >64 | >64
13 | CCc1[nH]c2nc(Oc3ccc4ccc[n+]([O-])c4c3)nc(Oc3ccc4ccc[n+]([O-])c4c3)c2c1Br [701,056] | > 64 mg/L | 4 | 8
14 | CCc1[nH]c2nc(Oc3ccc4c(c3)ncc[n+]4[O-])nc(Oc3ccc4c(c3)ncc[n+]4[O-])c2c1Cl [701,057] | > 64 mg/L | 8 | 32
15 | CCc1[nH]c2nc(Oc3ccc4c(c3)ncc[n+]4[O-])nc(Oc3ccc4c(c3)ncc[n+]4[O-])c2c1Br [701,058] | > 32 mg/L | <=0.5 | <=0.5
16 | CCc1[nH]c2nc(Oc3ccc4c(c3)ncc[n+]4[O-])nc(Oc3ccc4nccnc4c3)c2c1Br [701,059] | > 64 mg/L | <=0.5 | <=0.5
17 | CCc1[nH]c2nc(Oc3ccc4nccnc4c3)nc(Oc3ccc4c(c3)ncc[n+]4[O-])c2c1Br [701,060] | > 64 mg/L | <=0.5 | <=0.5
18 | CCc1[nH]c2nc(Oc3ccc4c(c3)ncc[n+]4[O-])nc(Oc3ccc4nccnc4c3)c2c1Cl [701,061] | > 32 mg/L | <=0.5 | <=0.5
19 | CCc1[nH]c2nc(Sc3ccc4[nH]cc(C(=O)OC)c4c3)nc(N3CC[C@@H](N)C3)c2c1Cl [701,062] | > 64 mg/L | 16 | 16
20 | NC1C2CN(c3nc(Sc4cnc5cccnc5c4)nc4[nH]c(C5CC5)c(Cl)c34)CC12 (stereo not drawn) [701,063] | 4 mg/L (≈ 8.89 µM) | 2 | 2
21 | N[C@@H]1CCN(c2nc(Sc3cnc4cccnc4c3)nc3[nH]c(C4CC4)c(Cl)c23)C1 [701,064] | 4 mg/L (≈ 9.13 µM) | 8 | 4
22 | NC1CN(c2nc(Sc3cnc4cccnc4c3)nc3[nH]c(C4CC4)c(Cl)c23)C1 [701,065] | 16 mg/L (≈ 37.7 µM) | 8 | 4
23 | CCc1[nH]c2nc(Sc3ccc4[nH]c(N)nc(=O)c4c3)nc(N3CC[C@@H](N)C3)c2c1Cl [701,066] | > 64 mg/L | 4 | >64
24 | CCc1[nH]c2nc(Oc3cc4ncn(C)c4[n+]([O-])c3)nc(Oc3cnc4c(c3)ncn4C)c2c1Cl [701,067] | > 64 mg/L | >64 | >64
25 | CCc1[nH]c2nc(Sc3ccc4cncnc4c3)nc(N3CC4C(N)C4C3)c2c1Cl (stereo not drawn) [701,069] | 8 mg/L (≈ 18.3 µM) | <=0.5 | <=0.5
26 | CCc1[nH]c2nc(Oc3ccc4cccnc4c3)nc(N3CC[C@@H](N)C3)c2c1Cl [701,070] | 64 mg/L (≈ 157 µM) | 4 | 8
27 | NC1CN(c2nc(Sc3cnc4ccc[n+]([O-])c4c3)nc3[nH]c(C4CC4)c(Cl)c23)C1 [701,074] | 8 mg/L (≈ 18.2 µM) | 8 | 4

Row | SMILES | MIC EC8 (E. coli 8 ATCC 25922) | MIC, SA (S. aureus ATCC 13709) | MIC Spn52 (S. pneumoniae ATCC 51916)
28 | N[C@@H]1CCN(c2nc(Sc3cnc4ccc[n+]([O-])c4c3)nc3[nH]c(C4CC4)c(Cl)c23)C1 [701,075] | 8 mg/L (≈ 17.6 µM) | 8 | 8
29 | CCc1[nH]c2nc(SC)nc(N3CC[C@@H](N)C3)c2c1Cl [701,076] | > 64 mg/L | >64 | 64
30 | CCc1[nH]c2nc(SC)nc(N3CC[C@@H](N)C3)c2c1C#N [701,077] | > 64 mg/L | >64 | >64
31 | CCc1[nH]c2nc(Oc3cc(C#N)c(OC)c(OC)c3)nc(Oc3ccc4nccnc4c3)c2c1Br [701,081] | > 32 mg/L | <=0.5 | <=0.5
32 | CCc1[nH]c2nc(Sc3ccc4cc5c(nc4c3)CCOC5)nc(N3CC[C@@H](N)C3)c2c1Cl [701,082] | 4 mg/L (≈ 8.32 µM) | <=0.5 | 16
33 | CCc1[nH]c2nc(Sc3ccc4cc5c([n+]([O-])c4c3)CCOC5)nc(N3CC[C@@H](N)C3)c2c1Cl [701,083] | 16 mg/L (≈ 32.2 µM) | <=0.5 | 1
34 | CCc1[nH]c2nc(Sc3ccc4cc5c([n+]([O-])c4c3)CCOC5)nc(N3CC4C(N)C4C3)c2c1Cl (stereo not drawn) [701,084] | 8 mg/L (≈ 15.7 µM) | <=0.5 | <=0.5
35 | CCc1[nH]c2nc(Sc3ccc4nc(N)n[n+]([O-])c4c3)nc(N3CC[C@@H](N)C3)c2c1Cl [701,087] | > 64 mg/L | <=0.5 | <=0.5
36 | CCc1[nH]c2nc(Sc3cc(C#N)c4c(c3)c(=O)ccn4C)nc(N3CC[C@@H](N)C3)c2c1Cl [701,088] | 32 mg/L (≈ 66.7 µM) | 1 | 1
37 | CCc1[nH]c2nc(Sc3cnc(N4CCC4)c([N+](=O)[O-])c3)nc(N3CC[C@@H](N)C3)c2c1Cl [701,089] | > 64 mg/L | 2 | 4
38 | CCc1[nH]c2nc(Sc3ccc4[nH]nnc4c3)nc(N3CC[C@@H](N)C3)c2c1Cl [701,090] | > 64 mg/L | 8 | 8
39 | CCc1[nH]c2nc(Oc3ccc[n+]([O-])c3)nc(Oc3ccc4nccnc4c3)c2c1Br [701,091] | > 64 mg/L | <=0.5 | <=0.5
40 | CCc1[nH]c2nc(Oc3ccc[n+]([O-])c3)nc(Oc3ccc[n+]([O-])c3)c2c1Br [701,092] | > 64 mg/L | <=0.5 | 2
41 | CCc1[nH]c2nc(Oc3ccc[n+]([O-])c3)nc(Oc3cccnc3)c2c1Br [701,093] | > 32 mg/L | <=0.5 | 4
42 | CCc1[nH]c2nc(Sc3cnc4[nH][nH]c(=O)c4c3)nc(N3CC[C@@H](N)C3)c2c1Cl [701,094] | > 64 mg/L | >64 | >64
43 | CCc1[nH]c2nc(Oc3cccc(S(C)(=O)=O)c3)nc(Oc3ccc4nccnc4c3)c2c1Br [701,095] | > 64 mg/L | <=0.5 | <=0.5
44 | CCc1[nH]c2nc(Oc3cnc(OC)c(OC)c3)nc(Oc3ccc4nccnc4c3)c2c1Br [701,096] | > 64 mg/L | <=0.5 | <=0.5
45 | CCc1[nH]c2nc(Oc3cnc(OC)c(OC)c3)nc(Oc3cnc(OC)c(OC)c3)c2c1Br [701,097] | > 64 mg/L | <=0.5 | 1
46 | CCc1[nH]c2nc(Sc3cnc4nccnc4c3)nc(N3CCC4CN[C@H]4C3)c2c1Cl (stereo partly drawn) [701,102] | 16 mg/L (≈ 35.3 µM) | <=0.5 | 1.
47 | CCc1[nH]c2nc(Oc3cncnc3)nc(Oc3ccc4c(N5CCOCC5)ncnc4c3)c2c1Br [701,104] | > 32 mg/L | <=0.5 | <=0.5
48 | CCc1[nH]c2nc(Oc3cnc(O)nc3)nc(Oc3cnc(O)nc3)c2c1Br [701,105] | > 64 mg/L | 1 | 2
49 | CCc1[nH]c2nc(Oc3cnc(N)nc3)nc(Oc3cnc(N)nc3)c2c1Br [701,106] | > 64 mg/L | 2 | 4
50 | CCc1[nH]c2nc(Oc3cnc(N)nc3)nc(N3CC(CN(C)C)C3)c2c1Cl [701,112] | > 64 mg/L | 16 | 32
51 | CCc1[nH]c2nc(Oc3ccc4nccnc4c3)nc(N3CC(CN(C)C)C3)c2c1Cl [701,113] | > 64 mg/L | 32 | 32
52 | CCc1[nH]c2nc(Oc3ccc4nccnc4c3)nc(N3CC(CN(C)C)C3)c2c1Br [701,114] | > 64 mg/L | 8 | 16
53 | CCc1[nH]c2nc(Sc3cnc4cccnc4c3)nc(N3CCC4CNC4C3)c2c1Cl (stereo not drawn) [701,115] | 16 mg/L (≈ 35.4 µM) | <=0.5 | <=0.5
